Assay: Hydrolysis of modified indigo compound to indigo
Format: physicochemical
Conditions: under hydrolyzing conditions
Protocol: In some embodiments, the substrate is contacted with a hydrolyzing agent, the hydrolyzing agent being capable of reacting with the modified indigo compound contained within the substrate to convert the modified indigo compound into indigo.
The hydrolysis is performed using any chemical compound or condition that is capable of converting the dye compound to indigo. In some embodiments, the hydrolysis is performed in aqueous compositions which contain a hydrolyzing agent. In other embodiments, the hydrolyzing agent may be selected by one skilled in the art and may include, without limitation, a base, heat, steam, or a combination thereof.

conversion to indigo by hydrolysis: hydrolyzes to indigo
SMILES: O=C1/C(=C2/C(=O)c3ccccc3N2C(=O)c2ccncc2)N(C(=O)c2ccncc2)c2ccccc21 [Compound 37]

Source: patent US20210189643A1 (VF Jeanswear LP, priority 2017, published 2021)
